Values quoted from earlier work as cited in patent publication US20110014269A1, “CIVAMIDE PATCH FOR LOCALIZED POST-INCISIONAL NEUROPATHIC PAIN” (WINSTON LABORATORIES, INC., priority 2009, published 2011).

Details: treatment of painful, inflammatory or allergic disorders

## COc1cc(CNC(=O)CCCC/C=C\C(C)C)ccc1O [Civamide, cis-8-methyl-N-vanillyl-6-nonenamide]
  burning and stinging relative to capsaicin's use: significantly less
